In ChEMBL document CHEMBL3352080, “Kojic acid derived hydroxypyridinone-chloroquine hybrids: synthesis, crystal structure, antiplasmodial activity and β-haematin inhibition” (Bioorg Med Chem Lett, 2014):

What was measured:
[1] = Inhibition of beta-haematin complex formation after 60 mins by spectrophotometry relative to chloroquine; assay type: physicochemical
[2] = test system: Plasmodium falciparum; experiment: Antiplasmodial activity against Plasmodium falciparum 3D7 infected in erythrocytes assessed as [3H]hypoxanthine incorporation after 24 hrs by microbeta scintillation counting analysis; assay type: functional, organism-based
[3] = test system: Plasmodium falciparum; experiment: Antiplasmodial activity against Plasmodium falciparum K1 infected in erythrocytes assessed as [3H]hypoxanthine incorporation after 24 hrs by microbeta scintillation counting analysis; assay type: functional, organism-based
[4] = test system: Plasmodium falciparum; experiment: Resistance index, ratio of IC50 for Plasmodium falciparum K1 to IC50 for Plasmodium falciparum 3D7; assay type: functional

Compound | IC50 [1] | IC50 [2] | IC50 [3] | Ratio IC50 [4]
Cn1cc(O)c(=O)cc1CNCCCNc1ccnc2cc(Cl)ccc12 | 6.12 equiv | 120 nM | 360 nM | 2.2
CN(CCCNc1ccnc2cc(Cl)ccc12)Cc1cc(=O)c(O)cn1C | 1.95 equiv | 40 nM | 270 nM | 1
Cn1cc(O)c(=O)cc1CNCCCCNc1ccnc2cc(Cl)ccc12 | – | 670 nM | 720 nM | 0.1
Cn1cc(O)c(=O)cc1CNCCCCCCNc1ccnc2cc(Cl)ccc12 | 0.7 equiv | 150 nM | 970 nM | 1.7
O=c1cc(CNCCNc2ccnc3cc(Cl)ccc23)n(C2CC2)cc1O | 1.41 equiv | 300 nM | 460 nM | 1.6
O=c1cc(CNCCCNc2ccnc3cc(Cl)ccc23)n(C2CC2)cc1O | 2.62 equiv | 160 nM | 850 nM | 3.6
CN(CCCNc1ccnc2cc(Cl)ccc12)Cc1cc(=O)c(O)cn1C1CC1 | 5.24 equiv | 170 nM | 360 nM | 1.5
O=c1cc(CNCCCCNc2ccnc3cc(Cl)ccc23)n(C2CC2)cc1O | 2.57 equiv | 4 nM | 30 nM | 2.1
O=c1cc(CNCCCCCCNc2ccnc3cc(Cl)ccc23)n(C2CC2)cc1O | 1.39 equiv | 30 nM | 80 nM | 2.7
Cn1cc(OCc2ccccc2)c(=O)cc1CNCCNc1ccnc2cc(Cl)ccc12 | 1.27 equiv | 540 nM | 2560 nM | 4.7
Cn1cc(OCc2ccccc2)c(=O)cc1CNCCCNc1ccnc2cc(Cl)ccc12 | 1.3 equiv | 300 nM | 1750 nM | 3
CN(CCCNc1ccnc2cc(Cl)ccc12)Cc1cc(=O)c(OCc2ccccc2)cn1C | 1.98 equiv | 390 nM | 2080 nM | 6.9
Cn1cc(OCc2ccccc2)c(=O)cc1CNCCCCNc1ccnc2cc(Cl)ccc12 | 0.42 equiv | 240 nM | 270 nM | 2.2
Cn1cc(OCc2ccccc2)c(=O)cc1CNCCCCCCNc1ccnc2cc(Cl)ccc12 | 0.51 equiv | 40 nM | 150 nM | 0.4
O=c1cc(CNCCNc2ccnc3cc(Cl)ccc23)n(C2CC2)cc1OCc1ccccc1 | 0.56 equiv | 210 nM | 40 nM | 1
O=c1cc(CNCCCNc2ccnc3cc(Cl)ccc23)n(C2CC2)cc1OCc1ccccc1 | 0.22 equiv | 190 nM | 1710 nM | 7.1
CN(CCCNc1ccnc2cc(Cl)ccc12)Cc1cc(=O)c(OCc2ccccc2)cn1C1CC1 | – | 150 nM | 70 nM | 0.1
O=c1cc(CNCCCCNc2ccnc3cc(Cl)ccc23)n(C2CC2)cc1OCc1ccccc1 | 0.82 equiv | 160 nM | 320 nM | 5.3
O=c1cc(CNCCCCCCNc2ccnc3cc(Cl)ccc23)n(C2CC2)cc1OCc1ccccc1 | 0.071 equiv | 4 nM | 320 nM | 7.5
Cn1cc(O)c(=O)cc1CNCCNc1ccnc2cc(Cl)ccc12 | 0.63 equiv | 580 nM | 1450 nM | 3
C[C@@H]1CC[C@H]2[C@@H](C)C(=O)O[C@@H]3O[C@@]4(C)CC[C@@H]1[C@]32OO4 [ARTEMISININ] | – | 9 nM | 4 nM | 0.4
CCN(CC)CCCC(C)Nc1ccnc2cc(Cl)ccc12 (configuration not stated) [CHLOROQUINE] | 1.9 equiv | – | – | –
